# Data: article PMC9090415, “Discovery of small molecule inhibitors of Plasmodium falciparum apicoplast DNA polymerase” (Journal of Enzyme Inhibition and Medicinal Chemistry, 2022)
# Target: P. falciparum apicoplast DNA polymerase (Pf-apPOL) (Plasmodium falciparum, UniProt Q8ILY1)
# Assay: Fluorescence-based high-throughput DNA polymerase assay (molecular beacon), primary screen and dose-response
# Format: biochemical
# Settings: for DNA Pol: unit not given, 90 min, 10 µM; for % inhibition Apo pol 10' 2.5 / % inhibition Apo pol 10' 5 / % inhibition Apo pol 10' 10 / % inhibition Apo pol 10' 20 / % inhibition Apo pol 10' 40 / % inhibition Apo pol 10' 80: read at 10'; for % inhibition Apol 90' 2.5 / % inhibition Apol 90' 5 / % inhibition Apol 90' 10 / % inhibition Apol 90' 20 / % inhibition Apol 90' 40 / % inhibition Apol 90' 80 / % inhibition ApPOL 90' 2.5 / % inhibition ApPOL 90' 5 / % inhibition ApPOL 90' 10 / % inhibition ApPOL 90' 20 / % inhibition ApPOL 90' 40 / % inhibition ApPOL 90' 80: read at 90'; for % inhibition apPOL 180' 2.5 / % inhibition apPOL 180' 5 / % inhibition apPOL 180' 10 / % inhibition apPOL 180' 20 / % inhibition apPOL 180' 40 / % inhibition apPOL 180' 80: read at 180'; for % inhibition Apo pol 5' 2.5 / % inhibition Apo pol 5' 5 / % inhibition Apo pol 5' 10 / % inhibition Apo pol 5' 20 / % inhibition Apo pol 5' 40 / % inhibition Apo pol 5' 80: read at 5'; for % inhibition Apol 40' 2.5 / % inhibition Apol 40' 5 / % inhibition Apol 40' 10 / % inhibition Apol 40' 20 / % inhibition Apol 40' 40 / % inhibition Apol 40' 80: read at 40'
# Outline: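 Single-point screening used 10 µM compound with 20 nM polymerase, 20 nM hairpin substrate and 6 µM dNTPs for 90 min at 25 °C. Confirmatory titrations (2.5–80 µM) followed fluorescence at three times, and IC50 was derived from a fit including a cooperativity term n.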
# [1] = 186 hits, DNA Pol (screen value)
# [2] = first dose-response, concentration 2.5
# [3] = first dose-response, concentration 10
# [4] = first dose-response, concentration 20
# [5] = first dose-response, concentration 40
# P. falciparum apicoplast DNA polymerase (Pf-apPOL), sequence (Q8ILY1 entry or part of it): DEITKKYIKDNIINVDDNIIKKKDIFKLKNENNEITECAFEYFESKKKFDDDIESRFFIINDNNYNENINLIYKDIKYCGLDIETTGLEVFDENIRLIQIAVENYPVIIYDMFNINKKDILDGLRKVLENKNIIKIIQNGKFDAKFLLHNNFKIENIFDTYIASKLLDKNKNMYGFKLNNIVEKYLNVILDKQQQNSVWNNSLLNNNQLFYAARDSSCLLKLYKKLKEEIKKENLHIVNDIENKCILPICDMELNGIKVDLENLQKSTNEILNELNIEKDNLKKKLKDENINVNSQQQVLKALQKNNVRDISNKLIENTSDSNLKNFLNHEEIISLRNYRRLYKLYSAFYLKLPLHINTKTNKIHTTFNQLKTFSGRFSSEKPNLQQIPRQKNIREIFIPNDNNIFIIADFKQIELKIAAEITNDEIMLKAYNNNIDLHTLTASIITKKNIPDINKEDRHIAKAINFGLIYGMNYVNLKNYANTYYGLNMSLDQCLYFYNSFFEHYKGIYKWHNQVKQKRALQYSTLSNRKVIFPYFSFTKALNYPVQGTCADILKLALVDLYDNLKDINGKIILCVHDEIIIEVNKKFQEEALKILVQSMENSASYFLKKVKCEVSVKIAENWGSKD
structure (smiles),measurement,setting,value
"COc1ccc(C2CC(c3ccc(Cl)cc3Cl)Nc3nc(N)nn32)cc1OC (stereo not drawn) [Molecule 43, COc1cc(ccc1OC)C1CC(Nc2n1nc(n2)N)c1ccc(cc1Cl)Cl]",DNA Pol,[1],50
same,DNA Pol,'DNA Pol' (screen value),50
same,% inhibition Apo pol 10' 2.5,"DRC-1, concentration 2.5",35%
same,% inhibition Apo pol 10' 5,"DRC-1, concentration 5",39%
same,% inhibition Apo pol 10' 10,"DRC-1, concentration 10",50%
same,% inhibition Apo pol 10' 20,"DRC-1, concentration 20",56%
same,% inhibition Apo pol 10' 40,"DRC-1, concentration 40",63%
same,% inhibition Apo pol 10' 80,"DRC-1, concentration 80",71%
same,% inhibition Apol 90' 2.5,"DRC-1, concentration 2.5",28%
same,% inhibition Apol 90' 5,"DRC-1, concentration 5",32%
same,% inhibition Apol 90' 10,"DRC-1, concentration 10",43%
same,% inhibition Apol 90' 20,"DRC-1, concentration 20",51%
same,% inhibition Apol 90' 40,"DRC-1, concentration 40",58%
same,% inhibition Apol 90' 80,"DRC-1, concentration 80",67%
same,% inhibition apPOL 180' 2.5,"DRC-1, concentration 2.5",22%
same,% inhibition apPOL 180' 5,"DRC-1, concentration 5",25%
same,% inhibition apPOL 180' 10,"DRC-1, concentration 10",35%
same,% inhibition apPOL 180' 20,"DRC-1, concentration 20",43%
same,% inhibition apPOL 180' 40,"DRC-1, concentration 40",52%
same,% inhibition apPOL 180' 80,"DRC-1, concentration 80",62%
same,% inhibition Apo pol 5',"DRC-2, concentration 5",22%
same,% inhibition Apo pol 5',"DRC-2, concentration 10",28%
same,% inhibition Apo pol 5',"DRC-2, concentration 20",30%
same,% inhibition Apo pol 5',"DRC-2, concentration 40",39%
same,% inhibition Apol 40',"DRC-2, concentration 2.5",26%
same,% inhibition Apol 40',"DRC-2, concentration 5",29%
same,% inhibition Apol 40',"DRC-2, concentration 20",42%
same,% inhibition Apol 40',"DRC-2, concentration 80",51%
same,% inhibition ApPOL 90',"DRC-2, concentration 2.5",26%
same,% inhibition ApPOL 90',"DRC-2, concentration 5",29%
same,% inhibition ApPOL 90',"DRC-2, concentration 20",42%
same,% inhibition ApPOL 90',"DRC-2, concentration 40",50%
same,% inhibition ApPOL 90',"DRC-2, concentration 80",52%
same,% inhibition apPOL 180',"DRC-2, concentration 10",30%
same,% inhibition apPOL 180',"DRC-2, concentration 20",35%
same,% inhibition apPOL 180',"DRC-2, concentration 40",43%
same,% inhibition Apo pol 5' 2.5,"DRC-2, concentration 2.5",23%
same,% inhibition Apo pol 5' 5,"DRC-2, concentration 5",22%
same,% inhibition Apo pol 5' 10,"DRC-2, concentration 10",28%
same,% inhibition Apo pol 5' 20,"DRC-2, concentration 20",30%
same,% inhibition Apo pol 5' 40,"DRC-2, concentration 40",39%
same,% inhibition Apo pol 5' 80,"DRC-2, concentration 80",38%
same,% inhibition Apol 40' 2.5,"DRC-2, concentration 2.5",26%
same,% inhibition Apol 40' 5,"DRC-2, concentration 5",29%
same,% inhibition Apol 40' 10,"DRC-2, concentration 10",36%
same,% inhibition Apol 40' 20,"DRC-2, concentration 20",42%
same,% inhibition Apol 40' 40,"DRC-2, concentration 40",49%
same,% inhibition Apol 40' 80,"DRC-2, concentration 80",51%
same,% inhibition ApPOL 90' 2.5,"DRC-2, concentration 2.5",26%
same,% inhibition ApPOL 90' 5,"DRC-2, concentration 5",29%
same,% inhibition ApPOL 90' 10,"DRC-2, concentration 10",37%
same,% inhibition ApPOL 90' 20,"DRC-2, concentration 20",42%
same,% inhibition ApPOL 90' 40,"DRC-2, concentration 40",50%
same,% inhibition ApPOL 90' 80,"DRC-2, concentration 80",52%
same,% inhibition apPOL 180' 2.5,"DRC-2, concentration 2.5",18%
same,% inhibition apPOL 180' 5,"DRC-2, concentration 5",21%
same,% inhibition apPOL 180' 10,"DRC-2, concentration 10",30%
same,% inhibition apPOL 180' 20,"DRC-2, concentration 20",35%
same,% inhibition apPOL 180' 40,"DRC-2, concentration 40",43%
same,% inhibition apPOL 180' 80,"DRC-2, concentration 80",46%
same,% inhibition Apo pol 10',[2],35%
same,% inhibition Apo pol 10',"first dose-response, concentration 5",39%
same,% inhibition Apo pol 10',[3],50%
same,% inhibition Apol 90',[2],28%
same,% inhibition Apol 90',[3],43%
same,% inhibition Apol 90',[4],51%
same,% inhibition apPOL 180',[2],22%
same,% inhibition apPOL 180',[3],35%
same,% inhibition apPOL 180',[4],43%
same,% inhibition apPOL 180',[5],52%
"Cn1nc(-c2nnc(-c3ccccc3F)o2)c2c1CCN(C(=O)c1ccccc1Cl)C2 [Molecule 34, Cn1nc(c2c1CCN(C2)C(=O)c1ccccc1Cl)c1nnc(o1)c1ccccc1F]",DNA Pol,[1],48
same,DNA Pol,'DNA Pol' (screen value),48
same,% inhibition Apo pol 10' 2.5,"DRC-1, concentration 2.5",33%
same,% inhibition Apo pol 10' 5,"DRC-1, concentration 5",44%
same,% inhibition Apo pol 10' 10,"DRC-1, concentration 10",52%
same,% inhibition Apo pol 10' 20,"DRC-1, concentration 20",58%
same,% inhibition Apo pol 10' 40,"DRC-1, concentration 40",59%
same,% inhibition Apo pol 10' 80,"DRC-1, concentration 80",63%
same,% inhibition Apol 90' 2.5,"DRC-1, concentration 2.5",23%
same,% inhibition Apol 90' 5,"DRC-1, concentration 5",35%
same,% inhibition Apol 90' 10,"DRC-1, concentration 10",46%
same,% inhibition Apol 90' 20,"DRC-1, concentration 20",54%
same,% inhibition Apol 90' 40,"DRC-1, concentration 40",59%
same,% inhibition Apol 90' 80,"DRC-1, concentration 80",65%
same,% inhibition apPOL 180' 2.5,"DRC-1, concentration 2.5",17%
same,% inhibition apPOL 180' 5,"DRC-1, concentration 5",28%
same,% inhibition apPOL 180' 10,"DRC-1, concentration 10",41%
same,% inhibition apPOL 180' 20,"DRC-1, concentration 20",50%
same,% inhibition apPOL 180' 40,"DRC-1, concentration 40",58%
same,% inhibition apPOL 180' 80,"DRC-1, concentration 80",64%
same,% inhibition Apo pol 5',"DRC-2, concentration 2.5",20%
same,% inhibition Apo pol 5',"DRC-2, concentration 5",20%
same,% inhibition Apo pol 5',"DRC-2, concentration 80",39%
same,% inhibition Apol 40',"DRC-2, concentration 2.5",22%
same,% inhibition Apol 40',"DRC-2, concentration 5",27%
same,% inhibition Apol 40',"DRC-2, concentration 40",49%
same,% inhibition Apol 40',"DRC-2, concentration 80",52%
same,% inhibition ApPOL 90',"DRC-2, concentration 2.5",22%
same,% inhibition ApPOL 90',"DRC-2, concentration 5",27%
same,% inhibition ApPOL 90',"DRC-2, concentration 40",52%
same,% inhibition apPOL 180',"DRC-2, concentration 20",39%
same,% inhibition apPOL 180',"DRC-2, concentration 40",49%
same,% inhibition apPOL 180',"DRC-2, concentration 80",52%
same,% inhibition Apo pol 5' 2.5,"DRC-2, concentration 2.5",20%
same,% inhibition Apo pol 5' 5,"DRC-2, concentration 5",20%
same,% inhibition Apo pol 5' 10,"DRC-2, concentration 10",24%
same,% inhibition Apo pol 5' 20,"DRC-2, concentration 20",29%
same,% inhibition Apo pol 5' 40,"DRC-2, concentration 40",38%
same,% inhibition Apo pol 5' 80,"DRC-2, concentration 80",39%
same,% inhibition Apol 40' 2.5,"DRC-2, concentration 2.5",22%
same,% inhibition Apol 40' 5,"DRC-2, concentration 5",27%
same,% inhibition Apol 40' 10,"DRC-2, concentration 10",34%
same,% inhibition Apol 40' 20,"DRC-2, concentration 20",40%
same,% inhibition Apol 40' 40,"DRC-2, concentration 40",49%
same,% inhibition Apol 40' 80,"DRC-2, concentration 80",52%
same,% inhibition ApPOL 90' 2.5,"DRC-2, concentration 2.5",22%
same,% inhibition ApPOL 90' 5,"DRC-2, concentration 5",27%
same,% inhibition ApPOL 90' 10,"DRC-2, concentration 10",36%
same,% inhibition ApPOL 90' 20,"DRC-2, concentration 20",43%
same,% inhibition ApPOL 90' 40,"DRC-2, concentration 40",52%
same,% inhibition ApPOL 90' 80,"DRC-2, concentration 80",55%
same,% inhibition apPOL 180' 2.5,"DRC-2, concentration 2.5",15%
same,% inhibition apPOL 180' 5,"DRC-2, concentration 5",21%
same,% inhibition apPOL 180' 10,"DRC-2, concentration 10",31%
same,% inhibition apPOL 180' 20,"DRC-2, concentration 20",39%
same,% inhibition apPOL 180' 40,"DRC-2, concentration 40",49%
same,% inhibition apPOL 180' 80,"DRC-2, concentration 80",52%
same,% inhibition Apo pol 10',[3],52%
same,% inhibition Apo pol 10',[4],58%
same,% inhibition Apo pol 10',[5],59%
same,% inhibition Apol 90',[5],59%
same,% inhibition apPOL 180',[5],58%
